Entries after “also recorded” stand apart in the source; their conditions may differ.
Tests used:
fibrin monomers [1] = experiment: Time to clot of GPRP peptide:fibrin monomers mixture (cessation of flow when inverting the tube); format: biochemical
Method: A mixture of GPRP peptide:fibrin monomers was prepared as follows:
Fibrinogen final concentration used was 1%, 1.5%, 3%, 3.5%. A BAC2 solution [fibrinogen component of EVICEL®] containing 7% clottable fibrinogen was diluted in 20 mM sodium acetate (NaAcetate) buffer, pH 7.0 to obtain the final listed concentrations.
To form fibrin, thrombin (as in EVICEL® Fibrin Sealant) was added to the fibrinogen solution at a final concentration of 10 IU/ml or 100 IU/ml and then the time to clot was recorded. Clotting was assessed by cessation of flow when inverting the tube.
The fibrin monomer concentration was estimated as being equal to the fibrinogen concentration.
All of these (having a ratio of at most 57:1) are below the minimal ratio required for long term stabilization of fibrin monomers. The GPRP:fibrin solution was prepared as described above (by adding a GPRP peptide into a fibrinogen solution and adding thrombin into the GPRP:fibrinogen mix). Next, the time to clotting was recorded as above.

fibrin monomers [2] = experiment: as above; format: biochemical; settings: 1% fibrin monomers, thrombin 10 or 100 IU/ml

For Gly-Pro-Arg-Pro [GPRP], the Time to clot (fibrin monomers [1]; 1% fibrin monomers, 0.1 mM GPRP, GPRP:fibrin 3.4 fold, thrombin 10 or 100 IU/ml) was “immediately; also recorded: Immediate”, the Time to clot (fibrin monomers [1]; 3% fibrin monomers, 0.1 mM GPRP, GPRP:fibrin 1.1 fold) was 5 s and the Time to clot (fibrin monomers [1]; 3% fibrin monomers, 0.2 mM GPRP, GPRP:fibrin 2.3 fold) was 7 s. For the same substance, the Time to clot (fibrin monomers [1]; 3% fibrin monomers, 0.5 mM GPRP, GPRP:fibrin 5.7 fold) was 11 s, the Time to clot (fibrin monomers [1]; 3% fibrin monomers, 1 mM GPRP, GPRP:fibrin 11.3 fold) was 13 s and the Time to clot (fibrin monomers [1]; 3% fibrin monomers, 1.5 mM GPRP, GPRP:fibrin 17 fold) was 22 s. The Time to clot (fibrin monomers [1]; 3% fibrin monomers, 2 mM GPRP, GPRP:fibrin 22.7 fold) was 28 s, the Time to clot (fibrin monomers [1]; 3% fibrin monomers, 3 mM GPRP, GPRP:fibrin 34 fold) was 150 s and the Time to clot (fibrin monomers [1]; 3% fibrin monomers, 4 mM GPRP, GPRP:fibrin 45 fold) was 480 s. The Time to clot (fibrin monomers [1]; 3% fibrin monomers, 5 mM GPRP, GPRP:fibrin 56.7 fold) was 900 s, the Time to clot (fibrin monomers [2]; 5 mM GPRP, GPRP:fibrin 170 fold) was 4 h and the Time to clot (fibrin monomers [2]; 10 mM GPRP, GPRP:fibrin 340 fold) was 170 to 190 h.
